Entries after “also recorded” stand apart in the source; their conditions may differ. Where two headings read alike, the source gives them in different places.
Assays:
11β-HSD2 = biological target: T1, 11β-HSD2 (Ovis aries, UniProt P50168); assay: 11β-HSD2 enzyme activity in sheep kidney microsomes; type: biochemical; conditions: for inhibitors of 11β-HSD2 (summary in words): summary of the screening
T1 construct: incubating sheep kidney microsomal fraction (6.5 μg protein) with 50 nM corticosterone; from tissue; host or cells: sheep kidney microsomal fraction
T1 sequence (P50168 1-427): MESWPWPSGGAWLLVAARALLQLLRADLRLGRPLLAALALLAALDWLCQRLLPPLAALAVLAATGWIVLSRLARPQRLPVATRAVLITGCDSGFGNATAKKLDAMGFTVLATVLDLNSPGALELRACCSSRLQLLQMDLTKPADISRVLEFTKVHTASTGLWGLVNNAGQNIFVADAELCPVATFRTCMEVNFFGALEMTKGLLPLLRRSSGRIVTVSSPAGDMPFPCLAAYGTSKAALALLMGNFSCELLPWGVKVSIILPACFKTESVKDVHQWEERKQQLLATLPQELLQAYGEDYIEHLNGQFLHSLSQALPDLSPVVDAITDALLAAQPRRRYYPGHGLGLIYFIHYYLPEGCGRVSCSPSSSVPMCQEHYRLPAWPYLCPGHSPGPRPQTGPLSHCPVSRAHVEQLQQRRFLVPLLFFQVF
From the text: The enzymatic reaction was termninated by addition of methanol and synthesis of 11-dehydro-corticosterone was quantitated by HPLC as described above.

11β-HSD1 Reductase [1] = biological target: T2, 11β-HSD1 Reductase (Rattus norvegicus, UniProt P16232); assay: Table 1: inhibition of 11β-HSD1 reductase; type: biochemical; conditions: Table 1, inhibition in words
11β-HSD1 Dehydrogenase [2] = biological target: T3, 11β-HSD1 Dehydrogenase (Rattus norvegicus, UniProt P16232); assay: Table 1: inhibition of 11β-HSD1 dehydrogenase; type: biochemical; conditions: Table 1, inhibition in words
11β-HSD2 Dehydrogenase = biological target: T4, 11β-HSD2 Dehydrogenase (Ovis aries, UniProt P50168); assay: Table 1: inhibition of 11β-HSD2 dehydrogenase; type: biochemical; conditions: Table 1, inhibition in words
T4 sequence (P50168 1-427): T1 sequence (P50168 1-427)

11β-HSD1 Reductase [3] = biological target: T2, 11β-HSD1 Reductase; assay: 11β-HSD1 reductase assay in rat Leydig cell homogenates; conditions: for inhibitors of 11β-HSD1 reductase (summary in words): summary of the screening; for Leydig Cell 11β-HSD1 Reductase [S]= 600 nM: rat Leydig cell homogenates, 600 nM 11-dehydro-corticosterone;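 on all read-outs here: rat Leydig cell homogenate incubated 20 min at 37 °C, pH 7.4, with tritiated 11-dehydro-corticosterone and 3 mM NADPH, product measured by HPLC, inhibition from triplicate dose–response curves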
Experimental: (§1) Each enzyme reaction (described below) was stopped by adding 750 μL MeOH. After centrifugation, an aliquot of supernatant was analyzed by HPLC using a DuPont Zorbax C8 column.
(§2) 11β-HSD1 dehydrogenase was assayed by incubating homogenates (13,000 cells equivalent) with 600 nM [^3H]-B (0.5 μCi) in the presence of 3 mM NADP, 50 mM Tris-HCl; pH 8.4 at 37° C. for 10 minutes in a total volume of 250 μL. 11β-HSD1 reductase was assayed by incubating homogenates (52,000 cells equivalent) with 600 nM [^3H]-11-dehydro-corticosterone in presence of 3 mM NADPH, 50 mM Tris-HCl; pH 7.4 at 37° C. for 20 minutes in a total volume of 250 μL.
(§3) Each concentration was tested in triplicate and the dose response curve, showing percentage inhibition versus log concentration of steroid was plotted. The data fitted a log-linear straight line.

11β-HSD1 Dehydrogenase [4] = biological target: T3, 11β-HSD1 Dehydrogenase; assay: 11β-HSD1 dehydrogenase assay in rat Leydig cell homogenates; type: biochemical; set-up: Freshly prepared rat Leydig cell homogenates were chosen since they provide a rich and reliable source of both 11β-HSD1 dehydrogenase and reductase; from tissue; host or cells: rat testicular Leydig cells, homogenate; conditions: for Leydig Cell 11β-HSDl Dehydrogenase [S] = 600 nM: progesterone and androgen derivatives; for inhibitors of 11β-HSD1 dehydrogenase (summary in words): summary of the screening;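 on all read-outs here: tritiated corticosterone conversion by 11β-HSD1 dehydrogenase in Leydig homogenates with 3 mM NADP at pH 8.4, 37 °C for 10 min, products resolved by HPLC, inhibition relative to uninhibited enzyme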
Experimental: as §1, §2, §3

rat aortic rings = assay: Contractile response of rat aortic rings to phenylephrine; type: cell-based; conditions: for amplification of the contractile response to phenylephrine by the steroid: rings incubated 24 h with steroid (corticosterone 10 nmol/L; 11-dehydro-corticosterone 100 nmol/L)
Experimental: Male Sprague-Dawley (150-200 g) rats were anesthetized with pentobarbital (50 mg/kg IP), and a median sternotomy was performed followed by the rapid removal of the thoracic aorta. The adventitia was removed, but the endothelium was left intact. The aorta was cut into 2-3 mm rings and individual rings were placed into a single well of a twenty four well culture plate and incubated at 37° C. under 95% 02-5% CO2. Each well contained 1 mL of DMEM/F12 containing 1% fetal bovine serum, streptomycin (100 μg/ml), penicillin (100 units/ml) and amphotericin (0.25 μg/ml). Aortic rings were incubated for 24 hours prior to contractility measurements with the following combinations of steroids, and antisense/nonsense oligonucleotides (3 μmol/L):
Antisense phosphorothioate oligonucleotides, targeted to block either 11β-HSD2 or 11β-HSD1 gene expression, were obtained from Research Genetics, Huntsville Ala. Antisense oligomers complementary to 20 bp sequences spanning the ribosome binding/translation start site were used. Oligomer sequences were: 5′-CATAACTGCCGTCCAACAGC-3′ (SEQ ID NO. 1) for 11β-HSD1 Antisense and 5′-AGGCCAGCGCTCCATGACTT-3′ (SEQ ID NO 2) for 11β-HSD2 antisense. In control experiments the corresponding sense sequence was used as the nonsense oligomer. Antisense and nonsense oligomers were added directly to each well at 20 μg/10:1 sterile H2O per well for a final concentration of 3 μmol/L.
For contraction measurements, aortic rings were suspended by tungsten wires with 1 g of tension and placed in a vessel bath containing serum free DMEM/F12 media at 37° C. aerated with 95% O2-5% CO2, at pH 7.4. Vessels were equilibrated for 20 minutes and then tested with phenylephrine (1 nmol/L-10 μmol/L). Although phenylephrine is structurally not a catecholamine, it is considered to be a functional catecholamine as it activates both a and P adrenoceptors. Due to its favorable stability characteristics, it is widely used as a catecholamine substitute in experiments of this nature. The intensity of contraction was assessed by use of a Narishige micromanipulator and model FT03 force transducer (Grass Instrument Co. West Warwick, R.I.). Measurements were recorded on computer using the Labview 4.1 Virtual Instrument System (National Instruments, Austin, Tex.).

[5] = biological target: T5, 11β-HSD1-reductase activity (Rattus norvegicus, UniProt P16232); assay: Metabolism of 3H-11-dehydrocorticosterone back to corticosterone by aortic rings; type: cell-based; conditions: 24 hours, compared with nonsense oligomers
T5 construct: from tissue; host or cells: rat aortic rings (intact tissue, 24 h incubation)
Experimental: The effects of 11β-HSD1 and 11β-HSD2 antisense on the inter-conversion of ^3H-corticosterone and ^3H-11-dehydro-corticosterone by aortic rings was also determined. Rings (2-3 mm) obtained in a similar manner as those in the contraction studies, were incubated in 1 ml DMEM/F12 media containing 1% FBS at 37° C. under 95% O2-5% CO2 in 24-well culture plates. Rings were incubated for 24 hours with:
(ii) ^3H-11β-dehydro-corticosterone (10 nmol/L)±11β-HSD1 antisense (3 μmol/L); this experiment was performed in duplicate (n=10 aortic rings per well). Control groups were incubated with the appropriate nonsense oligomer. ^3H-corticosterone in the incubation medium after 24 hrs was then measured. In this experiment, aortic rings were also analyzed for ^3H-corticosterone content. Rings from duplicate incubations (total n=20) were blotted dry, pooled and homogenized in 50% methanol using a Polytron. The homogenates were then centrifuged, extracted as below using Sep-Paks and injected onto a HPLC system for analysis.
Incubation media was collected, ran through a Sep-Pak and eluted with 3 mls of methanol, the eluate was then dried under nitrogen and reconstituted in 500:1 methanol. The aortic rings were dried and weighed. […] Steroids were observed by monitoring radioactivity on-line with a Packard Radiomatic Flo-One/Beta Series A-500 counter connected to a Dell Optiflex 425 S/L computer. […]

[6] = rat Leydig cell homogenates, 600 nM corticosterone
[7] = 11β-HSD2, sheep kidney microsomes, 50 nM corticosterone, NAD+, aldosterone, cortisol, corticosterone series, read-out: Dehydrogenase [S] = 50 nM
[8] = rat Leydig cell homogenates, 600 nM corticosterone, NADP, corticosteroid series, read-out: Leydig Cell 11β-HSD1 Dehydrogenase [S]= 600 nM

T3 sequence (P16232 whole entry): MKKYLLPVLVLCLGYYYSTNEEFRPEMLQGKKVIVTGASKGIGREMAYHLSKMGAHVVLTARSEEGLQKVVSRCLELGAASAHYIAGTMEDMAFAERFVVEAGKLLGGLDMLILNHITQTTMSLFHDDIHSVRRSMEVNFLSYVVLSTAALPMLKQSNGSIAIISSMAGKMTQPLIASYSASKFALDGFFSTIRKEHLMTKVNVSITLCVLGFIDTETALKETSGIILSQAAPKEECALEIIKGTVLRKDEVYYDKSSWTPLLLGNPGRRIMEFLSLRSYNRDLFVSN
T2 sequence (P16232 whole entry): as above
T5 sequence (P16232 whole entry): as above

SMILES	IC50 (11β-HSD2) [µM]	11β-HSD1 Reductase (11β-HSD1 Reductase [1])	11β-HSD1 Dehydrogenase (11β-HSD1 Dehydrogenase [2])	11β-HSD2 Dehydrogenase (11β-HSD2 Dehydrogenase)	IC50 (11β-HSD1 Reductase [3]) [µM]	IC50 (11β-HSD1 Dehydrogenase [4]) [µM]	Leydig Cell 11β-HSDl Dehydrogenase [S] = 600 nM (11β-HSD1 Dehydrogenase [4]; [6])	inhibitors of 11β-HSD2 (summary in words) (11β-HSD2)	IC50 (11β-HSD2; [7]) [µM]	IC50 (11β-HSD1 Dehydrogenase [4]; [8]) [µM]	other results
C[C@]12CCC(=O)C=C1CC[C@@H]1[C@H]2C(=O)C[C@]2(C)C(=O)CC[C@H]12 (stereo in doubt) [11 -Keto-Androstenedione, 4-Androsten-11,3,17-trione]	> 10	Selective Inhibitor	No Inhibition	No Inhibition	21	> 100	inactive				Sheep kidney 11β-HSD2 [S] = 50 nM (11β-HSD2; sheep kidney microsomes, corticosterone substrate, progesterone and androgen derivatives): inactive
C[C@]12CCC(=O)C[C@H]1CC[C@@H]1[C@H]2[C@@H](O)C[C@]2(C)[C@@H](C(=O)CO)CC[C@@H]12 [5α-DH-Corticosterone, 5α-Pregnan-11β,-21-diol-3,20-dione]	0.15	No inhibition	Potent Inhibitor	Potent Inhibitor	6.3	2.1		potent inhibitors; also recorded: high potency			inhibitors of 11β-HSD1 dehydrogenase (summary in words) (11β-HSD1 Dehydrogenase [4]): potent inhibitors; also recorded: high potency
C[C@]12CC(=O)[C@H]3[C@@H](CCC4=CC(=O)CC[C@@]43C)[C@@H]1CC[C@@H]2C(=O)CO [11-dehydro-corticosterone]								potent inhibitors; also recorded: high potency	0.47	> 100	amplification of the contractile response to phenylephrine by the steroid (rat aortic rings): amplified the contractile response
CC(=O)[C@H]1CC[C@@H]2[C@@H]3CCC4=CC(=O)CC[C@]4(C)[C@@H]3C(=O)C[C@]12C (stereo in doubt) [11 -Keto-Progesterone, 4-Pregnen-3,11,20-trione]	0.4	Selective Inhibitor	No Inhibition	Potent Inhibitor	9.5	> 100	inactive				inhibitors of 11β-HSD2 (summary in words) (11β-HSD2; listed as 11-keto-progesterone): potent inhibitors; also recorded: high potency; effect on the ability of 11-dehydro-corticosterone to amplify the contractile response to phenylephrine (rat aortic rings; 11-dehydro-corticosterone 100 nmol/L, 24 h, antisense 3 μmol/L vs nonsense): diminished; production of 3H-corticosterone from 3H-11-dehydrocorticosterone [5]: decreased the metabolism; inhibitors of 11β-HSD1 reductase (summary in words) (11β-HSD1 Reductase [3]; listed as 11-Keto-Progesterone): potent inhibitors; inhibitors of 11β-HSD1 reductase (summary in words) (11β-HSD1 Reductase [3]; listed as 11-keto-progesterone): high potency
C[C@]12CC(=O)[C@@H]3[C@@H](CCC4=CC(=O)CC[C@@]43C)[C@H]1CC[C@@H]2O [11 -Keto-Testosterone, 4-Androsten-17β-ol-11,3-dione]	1.35	Selective Inhibitor	No Inhibition	No Inhibition	18	> 100	inactive	potent inhibitors; also recorded: high potency			
C[C@]12CC[C@@H](O)C[C@H]1CC[C@@H]1[C@H]2C(=O)C[C@]2(C)[C@@H](C(=O)CO)CC[C@@H]12 [3α,5α-TH-11-dehydrocorticosterone, 5α-Pregnan-3α,21-diol-11,20-dione]		Potent Inhibitor	No Inhibition	Potent Inhibitor	0.7			potent inhibitors; also recorded: high potency	0.8	8	inhibitors of 11β-HSD1 reductase (summary in words) (11β-HSD1 Reductase [3]): potent inhibitors; also recorded: high potency
C[C@]12C[C@H](O)[C@H]3[C@@H](CCC4=CC(=O)CC[C@@]43C)[C@@H]1CC[C@@H]2C(=O)CO [corticosterone, reference compound]											amplification of the contractile response to phenylephrine by the steroid (rat aortic rings): amplified contractile responses
C[C@]12C[C@H](O)[C@@H]3[C@@H](CCC4=CC(=O)CC[C@@]43C)[C@H]1CC[C@@H]2O [11β-OH-Testosterone, 4-Androsten-11β,17β-diol-3-one]	0.35	No Inhibition	Inhibitor (Non-Selective)	Inhibitor (Non-Selective)	> 100	9					inhibitors of 11β-HSD2 (summary in words) (11β-HSD2; listed as 11β-OH-testosterone): potent inhibitors; also recorded: high potency; Leydig Cell 11β-HSD1 Reductase [S]= 600 nM (11β-HSD1 Reductase [3]; progesterone and androgen derivatives): inactive; inhibitors of 11β-HSD1 dehydrogenase (summary in words) (11β-HSD1 Dehydrogenase [4]): potent inhibitors; inhibitors of 11β-HSD1 dehydrogenase (summary in words) (11β-HSD1 Dehydrogenase [4]; listed as 11β-OH-testosterone): high potency; inhibitors of 11β-HSD1 dehydrogenase (summary in words) (11β-HSD1 Dehydrogenase [4]; listed as 11β-hydroxy-testosterone): potently inhibit
C[C@]12CC[C@@H](O)C[C@H]1CC[C@@H]1[C@H]2[C@@H](O)C[C@]2(C=O)[C@@H](C(=O)CO)CC[C@@H]12 [3α,5α-TH-Aldosterone, 5α-Pregnan-3α,11β,21-triol-20-one-18-al]		No Inhibition	Moderate Inhibitor	Potent Inhibitor	> 100				0.5	25	inhibitors of 11β-HSD2 (summary in words) (11β-HSD2; listed as 3α,5α-TH -aldosterone): potent inhibitors; inhibitors of 11β-HSD2 (summary in words) (11β-HSD2; listed as 3α,5α-TH-aldosterone): high potency; Leydig Cell 11β-HSD1 Reductase [S]= 600 nM (11β-HSD1 Reductase [3]; NADPH, corticosteroid series): inactive

Reference: patent US20070093460A1, “Methods of using selective 11beta-HSD inhibitors to treat gluocorticoid associated states” (priority 2005, published 2007)
